According to article PMC10415461 (Molecular Diversity, 2022):
Converted amounts (≈) assume the structure as drawn. Read-outs that look alike come from different tables or passages of the source.

Experiments:
[1] = system: S. aureus (ATCC 6538); assay: Antibacterial MIC, standard agar cup diffusion method; type: cell-based, Staphylococcus aureus; settings: 24 h; for MIC: Staphylococcus aureus, ATCC6538, 37 °C, read-out: MIC S. aureus (Gram-positive)
Experimental: (§1) The antibacterial and antifungal activities of compounds, ketone 1, 2a-j, and 5a-i were evaluated in vitro against S. aureus (ATCC 6538), P. aeruginosa (ATCC 10,145), E. coli (ATCC 8739), and C. albicans (ATCC 10,231). […] Standard strains of Staphylococcus aureus (ATCC 6538), Pseudomonas aeruginosa (ATCC 10,145), and Escherichia coli (ATCC 8739) were obtained from microbiological resource center, Faculty of Agriculture, Ain Shams University, Cairo, Egypt. All isolates were maintained at -70 °C in Trypticase Soya Broth (TSB, Becton, and Dickinson) with 10% glycerol. Prior to inoculation, all isolates were subcultured at 37 °C for 24 h on Trypticase Soya Agar (TSA, Becton, and Dickinson) and TSB, respectively.
(§2) The plates were rotated slowly to ensure uniform distribution of the microorganisms and then allowed to solidify on a flat surface. After solidification, four equidistant and circular wells of 10 mm diameter were carefully punched using a sterile cork bore. Twofold serial dilutions of the tested compounds using DMSO were performed. An equal volume of 100µL of each dilution was applied separately to each well in three replicates using a micropipette. All plates were incubated at 37 °C for 24 h. The inhibition zones were measured, and their average was calculated.

[2] = system: C. albicans (ATCC 10,231); assay: Antifungal MIC, agar cup diffusion method; type: cell-based, Candida albicans; settings: Candida albicans, ATCC 10,231, 24 h, Sabouraud agar, 37 °C, read-out: MIC C. albicans (Fungi)
Experimental: The antibacterial and antifungal activities of compounds, ketone 1, 2a-j, and 5a-i were evaluated in vitro against S. aureus (ATCC 6538), P. aeruginosa (ATCC 10,145), E. coli (ATCC 8739), and C. albicans (ATCC 10,231). […] The antifungal activity of compounds 1, 2a-j, and 5a-i and ketoconazole were determined according to the agar cup diffusion method at Deraya University, Faculty of Pharmacy, Department of Microbiology.
Fungal strains and culture conditions. […] Standard strain of Candida albicans (ATCC 10,231) was obtained from microbiological resource center, Faculty of Agriculture, Ain Shams University, Cairo, Egypt. The isolate was maintained at -70 °C in Trypticase Soya Broth (TSB, Becton, and Dickinson) with 10% glycerol. Prior to inoculation, the isolate was subcultured at 37 °C for 24 h on Trypticase Soya Agar (TSA, Becton, and Dickinson) and TSB, respectively.
as §2

[3] = system: P. aeruginosa (ATCC 10,145); assay: Antibacterial MIC, standard agar cup diffusion method; type: cell-based; settings: Pseudomonas aeruginosa, ATCC 10145, 37 °C, 24 h, read-out: MIC P. aeruginosa (Gram-negative)
Experimental: as §1, §2

[4] = system: E. coli (ATCC 8739); assay: as above; type: cell-based; settings: Escherichia coli, ATCC8739, 37 °C, 24 h, read-out: MIC E. coli (Gram-negative)
Experimental: as §1, §2

[5] = Solubility determination in phosphate buffer; type: physicochemical; settings: aqueous buffer, thermodynamic from solid
Experimental: A sample of drug was accurately weighed and dissolved in 100 ml of distilled water to prepare 100 mcg/ml stock solutions. Appropriate dilution of the stock solution with phosphate buffer pH 6.8 and 7.8 was then made to prepare a working solution of 40mcg/ml.
After determination of λ max of drug, a calibration curve was constructed by preparing solutions containing different concentrations of (1–5 mcg/ml) from stock solution after appropriate dilution with phosphate buffer pH 6.8. The UV absorbance of the prepared sample solutions were measured at the predetermined λ max using phosphate buffer pH 6.8 as a blank.
Aqueous solubility of the complexes was measured as a function of pH. An excess of each derivative was placed into suitable stoppered containers. […] The samples were immersed in a water bath thermostatized at 37 ± 1^◦C and 100 rpm and periodically shaken for 48 h. Once the equilibrium was reached, the pH of the supernatant was regarded.

[6] = physchem; settings: pH 7.8
Experimental: The n-octanol/water apparent partition coefficient at the isoelectric point (or distribution constant) was measured by using the traditional shake-flask technique. The pH of the aqueous buffer was first adjusted to isoelectric point of the compound. The n-octanol and aqueous phases were then mutually saturated before the measurement. […] The samples were agitated for 5h at water bath shaker thermostatized at 25 ± 1^◦C and 100 rpm. The concentration of the solute was determined in the aqueous and organic phases at the isoelectric point by UV spectroscopy the log p value was calculated as follows: […].

[7] = molecular target: S. aureus DNA gyrase (Staphylococcus aureus, UniProt P0A0K8+P20831); assay: Staphylococcus aureus DNA gyrase supercoiling assay; type: biochemical; settings: supercoiling of relaxed pBR322, 37 °C, 30 min; read-out: S. aureus DNA gyrase IC50 ± SD
Experimental: As antibacterial agents, fluoroquinolones act by targeting and inhibiting DNA gyrase (topo II) which is an essential enzyme involved in the DNA replication process.
Staphylococcus aureus DNA gyrase was incubated at 37 °C for 30 min in a total reaction volume of 30 μl containing 40 mM HEPES. KOH (pH 7.6), 10 mM magnesium acetate, 10 mM DTT, 2 mM ATP, 500 mM potassium glutamate, 0.05 mg/ml albumin and Relaxed pBR322. DNA gyrase supercoiling reactions catalyzed by S. aureus gyrase, Stop reaction by adding 30 μL of STEB and 30 μL of chloroform/isoamyl alcohol (v:v, 24:1),and then Vortex briefly ~ 5 secs and centrifuge for 1 min. after which 20 µL of this was loaded on a 1% agarose gel that was then run at ~ 75 V for approximately 2 h. The gel was stained by (0.5 mg/L) ethidium bromide in water. Fluorescent images were taken at a wavelength of 300 nm on a UV transilluminator imaging system. The fluorescence intensity of the supercoiled plasmid reaction product was quantitated using ImagQuant software (Molecular Dynamics).

[8] = phosphate buffer pH 6.8, 37 °C, read-out: Solubility pH 6.8
[9] = phosphate buffer pH 7.8, 37 °C, read-out: Solubility pH 7.8

MIC S. aureus (Gram-positive) ([1]; 37 °C)	MIC [1]	MIC [2]	MIC [3]	MIC [4]	solubility at 48 h [5, 8]	solubility at 48 h [5, 9]	logD [6]	Structure (SMILES)	melting point	IC50 [7]	Lipophilicity (log p) [6]
0.70 µg/mL (≈ 1.42 µM)	0.7 µg/mL (≈ 1.42 µM)	> 100 µg/mL	1.2 µg/mL (≈ 2.44 µM)	0.6 µg/mL (≈ 1.22 µM)	–	–	–	CC(=O)c1ccc(NC(=O)N2CCN(c3cc4c(cc3F)c(=O)c(C(=O)O)cn4C3CC3)CC2)cc1 [Compound 1]	–	–	–
–	–	2.6 µg/mL (≈ 4.89 µM)	–	–	–	–	–	CC(=O)N1CCN(c2ccc(OCC3COC(Cn4ccnc4)(c4ccc(Cl)cc4Cl)O3)cc2)CC1 (centres unmarked) [Ketoconazole, reference compound]	–	–	–
–	8.14 µg/mL (≈ 12 µM)	36.1 µg/mL (≈ 53.2 µM)	12.3 µg/mL (≈ 18.1 µM)	42.2 µg/mL (≈ 62.1 µM)	–	–	–	N#Cc1c(-c2ccc(Br)cc2)nc(SCC(=O)N2CCN(c3cc4c(cc3F)c(=O)c(C(=O)O)cn4C3CC3)CC2)[nH]c1=O [Compound 5d, 7-(4-(2-((4-(4-Bromophenyl)-5-cyano-6-oxo-1,6-dihydropyrimidin-2-yl)thio)acetyl)piperazin-1-yl)-1-cyclopropyl-6-fluoro-4-oxo-1,4-dihydroquinoline-3-carboxylic acid]	284 to 285 °C	–	–
–	1.48 µg/mL (≈ 2.21 µM)	> 100 µg/mL	4.2 µg/mL (≈ 6.26 µM)	5.13 µg/mL (≈ 7.65 µM)	180 µg/mL (≈ 268 µM)	150 µg/mL (≈ 224 µM)	0.34	COc1cc(/C=C/C(=O)c2ccc(NC(=O)N3CCN(c4cc5c(cc4F)c(=O)c(C(=O)O)cn5C4CC4)CC3)cc2)cc(OC)c1OC [Compound 2j]	–	–	–

Further lines, the compound ahead of its results:

Structure (SMILES)	MIC S. aureus (Gram-positive) ([1]; 37 °C)	MIC [1]	MIC [2]	MIC [3]	MIC [4]	solubility at 48 h [5, 8]	solubility at 48 h [5, 9]	logD [6]	melting point	IC50 [7]	Lipophilicity (log p) [6]
O=C(/C=C/c1ccc(Br)cc1)c1ccc(NC(=O)N2CCN(c3cc4c(cc3F)c(=O)c(C(=O)O)cn4C3CC3)CC2)cc1 [Compound 2d]	–	2.65 µg/mL (≈ 4.02 µM)	> 100 µg/mL	7.25 µg/mL (≈ 11 µM)	4.78 µg/mL (≈ 7.25 µM)	140 µg/mL (≈ 212 µM)	160 µg/mL (≈ 243 µM)	0.42	–	–	–
Cc1ccc(-c2nc(SCC(=O)N3CCN(c4cc5c(cc4F)c(=O)c(C(=O)O)cn5C4CC4)CC3)[nH]c(=O)c2C#N)cc1 [Compound 5f]	–	4.79 µg/mL (≈ 7.79 µM)	> 100 µg/mL	2.95 µg/mL (≈ 4.8 µM)	3.89 µg/mL (≈ 6.33 µM)	–	–	–	264 to 267 °C	3.5 ± 0.19 µM	–
COc1ccc(-c2nc(SCC(=O)N3CCN(c4cc5c(cc4F)c(=O)c(C(=O)O)cn5C4CC4)CC3)[nH]c(=O)c2C#N)cc1 [Compound 5g, 7-(4-(2-((5-Cyano-4-(4-methoxyphenyl)-6-oxo-1,6-dihydropyrimidin-2-yl)thio)acetyl)piperazin-1-yl)-1-cyclopropyl-6-fluoro-4-oxo-1,4-dihydroquinoline-3-carboxylic acid]	–	0.28 µg/mL (≈ 0.444 µM)	> 100 µg/mL	23.1 µg/mL (≈ 36.7 µM)	14.2 µg/mL (≈ 22.6 µM)	740 µg/mL (≈ 1170 µM)	900 µg/mL (≈ 1430 µM)	–	239 to 242 °C	7.59 ± 0.4 µM	− 0.09
CN(C)c1ccc(/C=C/C(=O)c2ccc(NC(=O)N3CCN(c4cc5c(cc4F)c(=O)c(C(=O)O)cn5C4CC4)CC3)cc2)cc1 [Compound 2h]	–	1.2 µg/mL (≈ 1.92 µM)	84.2 µg/mL (≈ 135 µM)	3.12 µg/mL (≈ 5.01 µM)	5.25 µg/mL (≈ 8.42 µM)	680 µg/mL (≈ 1090 µM)	780 µg/mL (≈ 1250 µM)	–	–	–	− 0.21
